Common to all, as to format: cell-based, Escherichia coli
For one assay, the system named is APEC O78-53. Description: Antimicrobial susceptibility, CAMHB micro-dilution (CLSI). The settings on record: APEC O78-53, CAMHB, (R) = resistant. From the text:
(§1) Initially, antimicrobial susceptibility profile was established for all the tested APEC serotypes using cation-adjusted Muller-Hinton broth (CAMHB) micro-dilution method according to clinical and laboratory standards institute (CLSI) guidelines.

The subject of the next assay is APEC O8. Described as above. The settings on record: (R) = resistant.
Description: as §1

A further assay has as its system APEC O1. The assay is described as above. Particulars: (R) = resistant.
Description: as §1

For assay [1], the system named is APEC O78. Described as above. The settings on record: (R) = resistant.
Description: as §1

For another assay, the system named is APEC O115. The description is as above. The settings on record: (R) = resistant.
Description: as §1

The test system of a further assay is APEC O109. The assay is described as above. The settings on record: (R) = resistant.
Description: as §1

Another assay relates to APEC O35. The description is as above. The settings on record: (R) = resistant.
Description: as §1

In a further assay the test system is APEC O2-211. The description is as above. Particulars: APEC O2-211, CAMHB, (R) = resistant.
Description: as §1

A further assay relates to APEC O15. Described as above. Particulars: (R) = resistant.
Description: as §1

For the next assay, the system named is APEC O18. Described as above. The settings on record: (R) = resistant.
Description: as §1

Another assay relates to APEC O2. Described as above. The settings on record: (R) = resistant.
Description: as §1

The next assay has as its system APEC O1-63. The assay is described as above. The settings on record: APEC O1-63, CAMHB, (R) = resistant.
Description: as §1

The test system of a further assay is E. coli ATCC 25922. Description: Antimicrobial susceptibility, quality control strain (CLSI). Particulars: E. coli ATCC 25922 quality control strain, CAMHB.
Description: as §1

For assay [2], the system named is APEC O78. The assay can be described thus: Primary screening, growth inhibition of APEC O78. The settings on record: separate experiment, DMSO 1% to 32%, M63 media, 12 h. On the procedure: To identify the APEC growth inhibitors, SM library was screened against APEC O78 which is one of the most frequently isolated APEC serotypes from avian colibacillosis cases. One microlitre SMs (final concentration of 100 µM) were added using a slotted pin tool (V and P Scientific, San Diego, CA, USA) to the wells of the 96-well plate containing 100 µL of overnight grown 0.05 OD600 (7 × 10^7 CFU/mL) adjusted APEC culture. Controls (four replicates/plate) containing 1 µL of 100% DMSO (final concentration of 1%), 1 µL chloramphenicol (CHL, #C0378 Sigma-Aldrich) (20 µg/mL), 1 µL kanamycin (KAN, #60615 Sigma-Aldrich) (50 µg/mL), and 100 µL of M63 media were included. To determine the effect of DMSO on APEC growth, antimicrobial activity of DMSO was determined at different concentrations (1% to 32%) in a separate experiment. Plate was then incubated at 37 °C for 12 h in Sunrise - Absorbance microplate reader (Tecan Group Ltd. San Jose, CA) with kinetic OD600 measurement every 30 mins. The quality of screening was assessed by calculating the Z′-score as described previously. The growth inhibition of APEC was calculated by using the formula as previously described[13],[14]. The SMs inhibiting at least 80% of the APEC growth were selected as primary hits. […]

Assay [3] relates to APEC O78. Description: Crystal violet (CV) uptake assay. Particulars: 2X MBC, 30 mins; P < 0.05, Student's t-test. The method, then: (§2) Membrane permeability assays (crystal violet (CV) uptake and loss of 260/280 nm absorbing materials) were conducted as described previously. […] CV uptake was measured using the formula: (OD DMSO − OD SM/OD DMSO × 100). Two independent experiments in duplicates were conducted.

Assay [4] concerns APEC O78. Description: Loss of 260/280 nm absorbing materials assay. The settings on record: 2X MBC, 1 h. The method, then:
as §2

[5] abbreviates: Escherichia coli, read-out: MIC.
Where [6] appears, read: Escherichia coli, ATCC25922, read-out: MIC.

Converted amounts (≈) assume the structure as drawn. Where two headings read alike, the source gives them in different places. Marks after values point to notes of the source that are not given here.

Take `CC1(C)S[C@@H]2[C@H](NC(=O)[C@H](N)c3ccccc3)C(=O)N2[C@H]1C(=O)O` [Ampicillin, ampicillin]: the MIC in the assay with APEC O78-53 (setting [5]) is 4 µg/mL (≈ 11.4 µM); in the assay on APEC O8 (setting [5]), 4 µg/mL (≈ 11.4 µM); with APEC O1 (setting [5]) it was greater than 64 µg/mL; with APEC O78 [1] (setting [5]) it was greater than 64 µg/mL; in the assay on APEC O115 (setting [5]), greater than 64 µg/mL; with APEC O109 (setting [5]) it was greater than 64 µg/mL. The MIC in the assay with APEC O35 (setting [5]) is 2 µg/mL (≈ 5.72 µM); in the assay on APEC O2-211 (setting [5]), 4 µg/mL (≈ 11.4 µM); in the assay on APEC O15 (setting [5]) it was 2 µg/mL (≈ 5.72 µM); in the assay on APEC O18 (setting [5]) it was 4 µg/mL (≈ 11.4 µM); in the assay on APEC O2 (setting [5]), greater than 64 µg/mL; in the assay on APEC O1-63 (setting [5]), 4 µg/mL (≈ 11.4 µM). Besides, the MIC in the assay with E. coli ATCC 25922 (setting [6]) amounted to 8 µg/mL (≈ 22.9 µM).

For `C[S+](C)[O-]` [DMSO, dimethyl sulfoxide], the “DMSO concentration inhibitory to APEC” value in the assay on APEC O78 [2] is no less than 8%.

`O=C(O)CN(CCN(CC(=O)O)CC(=O)O)CC(=O)O` [EDTA, ethylenediaminetetraacteic acid, reference compound]: the “uptake of crystal violet compared with DMSO” value in the assay with APEC O78 [3] is recorded as “increased the uptake of crystal violet”. Moreover, the “260 nm absorbing materials in supernatant compared with DMSO” value with APEC O78 [4] is listed as “significantly (P < 0.05, Student’s t-test) increased”. Also, in the assay on APEC O78 [4] (DMSO 2.58, superscript a P < 0.05 vs DMSO), the “Absorbance 280 nm of treated supernatant” value is given as 2.60. In addition, in the assay with APEC O78 [4] (DMSO 3.77, superscript a P < 0.05 vs DMSO), the “Absorbance 260 nm of treated supernatant” value is 4.00^a.

Turning to `CN(C)[C@@H]1C(O)=C(C(N)=O)C(=O)[C@@]2(O)C(O)=C3C(=O)c4c(O)cccc4[C@@](C)(O)[C@H]3C[C@@H]12` [Tetracycline, tetracycline], the MIC was greater than 64 µg/mL in the assay with APEC O78-53 (setting [5]); greater than 64 µg/mL in the assay with APEC O8 (setting [5]); greater than 64 µg/mL in the assay on APEC O1 (setting [5]); 32 µg/mL (≈ 72 µM) with APEC O78 [1] (setting [5]); greater than 64 µg/mL with APEC O115 (setting [5]); 1 µg/mL (≈ 2.25 µM) with APEC O109 (setting [5]). In addition, the MIC with APEC O35 (setting [5]) was 1 µg/mL (≈ 2.25 µM); with APEC O2-211 (setting [5]) it was greater than 64 µg/mL; in the assay on APEC O15 (setting [5]) it was greater than 64 µg/mL; with APEC O18 (setting [5]), 2 µg/mL (≈ 4.5 µM); in the assay on APEC O2 (setting [5]), greater than 64 µg/mL; in the assay on APEC O1-63 (setting [5]) it was 16 µg/mL (≈ 36 µM). The MIC with E. coli ATCC 25922 (setting [6]) is 0.5 µg/mL (≈ 1.13 µM).

Turning to colistin, the MIC is 0.5 µg/mL in the assay on APEC O78-53; 1 µg/mL in the assay with APEC O8; 0.5 µg/mL against APEC O1; 0.25 µg/mL against APEC O78 [1]; 1 µg/mL with APEC O115; 0.5 µg/mL against APEC O109. The MIC was 1 µg/mL in the assay with APEC O35; 4 µg/mL in the assay with APEC O2-211; 1 µg/mL against APEC O15; 1 µg/mL in the assay on APEC O18; 0.5 µg/mL against APEC O2; 4 µg/mL with APEC O1-63. Further, the MIC in the assay on E. coli ATCC 25922 is given as 1 µg/mL.

Source of the values: article PMC6193035, “Novel small molecules affecting cell membrane as potential therapeutics for avian pathogenic Escherichia coli” (Scientific Reports, 2018).
